Data set [1] can be described thus: Pharmacokinetics of noribogaine in healthy volunteers after single oral dose (plasma, LCMSMS).
The nature of data set [2]: Safety and tolerability of noribogaine in healthy volunteers (adverse events, vital signs, ECG). The format is in vivo, human. The protocol:
(§1) Pulse oximetry and capnography data were collected continuously using a GE Carescape B650 monitoring system from 2 hours prior to dosing and until six hours after dosing, and thereafter at 12, 24, 48 and 72 hours post-dosing. […] Pupillary miosis was assessed by pupillometry.
(§2) Safety and tolerability of noribogaine were tested in the group of volunteers from Example 1. […] Safety evaluations included clinical monitoring, recording of adverse events (AEs), safety laboratory tests, vital signs, ECG telemetry from −2 h to 6 h after dosing, and 12-lead electrocardiograms (ECGs) up to 216 hours post-dosing.

Data set [3] in a line: Safety and QT interval in opioid-dependent participants. The format is in vivo, human. The conditions noted are these: for Mean prolongation of the QT interval: opioid-dependent patients. The method, then:
(§3) The efficacy of noribogaine in humans was evaluated in opioid-dependent participants in a randomized, placebo-controlled, double-blind trial. […] See U.S. Provisional Application Ser. No. 61/852,485, filed Mar. 15, 2013, which is incorporated herein by reference in its entirety.
(§4) In the first cohort, six patients were orally administered a single dose of 60 mg noribogaine, and three patients received placebo. In the second cohort, five patients were orally administered a single dose of 120 mg noribogaine, and three patients received placebo.

A short description of data set [4]: Efficacy of noribogaine in opioid-dependent participants: time to resumption of opioid substitution treatment. The format is in vivo, human. The conditions noted are these: for average time to resumption of opioids: single oral dose. The protocol: as §3, §4
FIG. 3 indicates the serum noribogaine concentration over time. Serum concentrations for 120 mg dose (black squares) are estimated based on data from the 60 mg dose (gray diamonds).

Data set [5] can be described thus: Pupillometry (pupillary miosis) in healthy volunteers. Type of data set: in vivo, human. The method, then: as §1
Data set [6] can be described thus: Cold pressor test (analgesic effect) in healthy volunteers. Type of data set: in vivo, human. The method, then:
Analgesic effect was assessed based on duration of hand immersion in ice water and on visual analog scale (VAS) pain scores upon hand removal from the water bath.
as §2

The mark [7] stands for this setting: plasma glucuronide after single oral 30 mg noribogaine, healthy volunteers, mean (SD), n = 6.
[8] abbreviates: plasma glucuronide after single oral 60 mg noribogaine, healthy volunteers, mean (SD), n = 6.
Where [9] appears, read: across dose groups (3-60 mg), healthy volunteers.
[10] abbreviates: 3 mg dose group, healthy volunteers.
Where [11] appears, read: opioid-dependent participants, single oral 60 mg or 120 mg.
The mark [12] stands for this setting: after adjusting for baseline differences, p>0.9.

Entries after “also recorded” stand apart in the source; their conditions may differ.

For the compound `CC[C@H]1C[C@@H]2C[C@H]3c4[nH]c5ccc(OC6OC(C(=O)O)C(O)C(O)C6O)cc5c4CCN(C2)[C@@H]13` (stereo partly drawn) [Noribogaine glucuronide], in data set [1] (setting [7]), the “AUC0-216 of noribogaine glucuronide” value is recorded as 25.7 (9.1) ng · hr/ml, the “AUC0-∞ of noribogaine glucuronide” value was 25.8 (9.3) ng · hr/ml, the “Cmax of noribogaine glucuronide” value is given as 1.8 (0.6) ng/ml and the “Tmax of noribogaine glucuronide” value is 3.0 (0.6) hr. Moreover, in data set [1] (setting [7]), the “t1/2 of noribogaine glucuronide” value is recorded as 20.6 (4.9) hr. In addition, in data set [1] (setting [8]), the “AUC0-216 of noribogaine glucuronide” value is on record as 65.0 (21.5) ng · hr/ml, the “AUC0-∞ of noribogaine glucuronide” value is 67.1 (21.9) ng · hr/ml, the “Cmax of noribogaine glucuronide” value is 4.1 (1.2) ng/ml and the “Tmax of noribogaine glucuronide” value is on record as 3.8 (1.2) hr. Also, the “t1/2 of noribogaine glucuronide” value in data set [1] (setting [8]) is recorded as 23.1 (3.0) hr. Besides, the “time of peak glucuronide concentrations after noribogaine dosing” value in data set [1] (plasma, 30 mg and 60 mg noribogaine dose groups) was 3 to 4 h.
`CC[C@H]1CC2C[C@H]3c4[nH]c5ccc(O)cc5c4CCN(C2)C13` [Noribogaine]: the “dose-proportionality of Cmax and AUC” value in data set [1] (3-60 mg single oral doses, linear regression) was “increased linearly with dose”. Besides, in data set [1] (setting [9]), the Mean half-life estimates is 28 to 50 h. Further, in data set [1] (setting [9]), the Volume of distribution lay within 1417 to 3086 L. For the same compound, the CL/F in data set [1] (healthy male volunteers, single oral 3 mg noribogaine, mean (SD), n = 6) was 41.4 (7.0) L/h; in data set [1] (healthy male volunteers, single oral 10 mg noribogaine, mean (SD), n = 6), 42.3 (12.0) L/h; in data set [1] (healthy male volunteers, single oral 30 mg noribogaine, mean (SD), n = 6) it was 46.9 (16.4) L/h; in data set [1] (healthy male volunteers, single oral 60 mg noribogaine, mean (SD), n = 6) it was 34.0 (11.4) L/h. Also, the Tmax in data set [1] (healthy male volunteers, single oral 30 mg noribogaine, plasma, mean (SD), n = 6) is 1.8 (0.6) hr. In data set [1] (healthy volunteers, 3-60 mg dose groups), the “time of peak concentrations after oral dosing” value lay in the range of 2 to 3 h. Also, the “adverse events, Mild” value was “Dizziness; also recorded: Epistaxis; also recorded: Headache; also recorded: Back pain” in data set [2] (setting [10]); “Headache” in data set [2] (10 mg dose group, healthy volunteers); “Headache” in data set [2] (30 mg dose group, healthy volunteers). Also, the “adverse events, Moderate” value in data set [2] (setting [10]) is “Headache”. Further, the “number of adverse events reported” value in data set [2] (3 mg dose group, two subjects) was “five adverse events”; in data set [2] (10 mg dose group, single subject), “one adverse event”; in data set [2] (30 mg dose group, single subject) it was “one adverse event”. The “intensity of adverse events” value in data set [2] (all dose groups, all resolved prior to study completion) is listed as “mild-moderate intensity”. In data set [2] (healthy volunteers, 3-60 mg), the “changes in oximetry, capnography or respiratory rate” value is “no changes in oximetry or capnography, or changes in respiratory rate”. Besides, the “changes in vital signs or safety laboratory tests” value in data set [2] (healthy volunteers, 3-60 mg) is reported as “no changes in vital signs or safety laboratory tests of note”. Moreover, the results for the “Mean prolongation of the QT interval” value in data set [3] (first cohort (60 mg noribogaine or placebo)) and in data set [3] (second cohort (120 mg noribogaine or placebo)) were “less than 10 ms” and “less than 40 ms”, respectively. Also, the adverse effects result in data set [3] (setting [11]) is “No adverse effects”. In addition, the hallucinatory effects entry in data set [3] (setting [11]) is listed as “no hallucinatory effects”. Also, in data set [3] (summary statement, increases in opioid addicted patients compared to healthy individuals), the “prolongation of the treated patient's QT interval” value is recorded as “dose dependent prolongation”. Besides, the “average time to resumption of opioids” value in data set [4] (first cohort, blinded: 60 mg noribogaine (6 patients) or placebo (3 patients)) was “approximately 8.7 hours”; in data set [4] (second cohort, blinded: 120 mg noribogaine (5 patients) or placebo (3 patients)), “approximately 23 hours”. The “time to resumption of opioids longer than reported for untreated patients in a similar study” value in data set [4] (first cohort, blinded: 60 mg noribogaine or placebo) was ~2 h. For the same compound, the “average time to resumption of OST” value in data set [4] (five presumed noribogaine-treated patients of second cohort (imputed, 120 mg), placebo construed from no QT prolongation) is given as “approximately 26.8 hours”. Further, the “impact on withdrawal symptoms in addicted patients” value in data set [4] (lower dosing of noribogaine, human clinical studies (summary statement)) was “minimal impact on withdrawal symptoms”. Besides, the “pupil diameter, each dose group vs placebo (ANOVA)” value in data set [5] (setting [12]) is reported as “no statistically significant differences”. Moreover, the pupillary constriction result in data set [5] (healthy volunteers, 3-60 mg single oral dose) is “no evidence of pupillary constriction”. In data set [6] (after adjusting for baseline differences, p=0.17), the “VAS pain scores, each dose group vs placebo (ANOVA)” value was “no statistically significant differences”. Also, the “duration of hand immersion, each dose group vs placebo (ANOVA)” value in data set [6] (setting [12]) was “no statistically significant differences”. The “analgesic effect in the cold pressor test” value in data set [6] (healthy volunteers, 3-60 mg single oral dose, 1° C. water) is “no analgesic effect”.

Values taken from US9345711B2, “Methods for acute and long-term treatment of drug addiction” (DemeRx, Inc., priority 2014, dated 2016).
